Calls of active or inactive are those of the source.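 The calls were made as follows: active = AC50 no more than tenfold above the top dose tested, or full inhibition at every dose with a flat fit (cut at about 19 µM in these data); inconclusive = flat curve fit with inhibition between 30% and 70%, or poor fit; inactive = AC50 more than tenfold above the top dose tested.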
Test system: HMLE_sh_eGFP viability, CellTiter-Glo luminescence, 72 h
Assay: cytotoxicity in HMLE control line with eGFP shRNA, dose response, counter-screen for HMLE_sh_ECad selective toxicity project, cell-based, HMLE_sh_eGFP, luminescence (AID 463074);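 also: counterscreen control line to flag general toxicity for the HMLE_sh_ECad screen; potency for loss of viability as luminescence drops below DMSO wells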

SMILES	AC50
Cc1cc(C(=O)Nc2nc3c(s2)CCCC3)cs1	> 19.5 µM (inactive)
C/C(=N\NC(N)=S)c1cc(-c2ccccc2)c(-c2ccccc2)s1	3.94 µM
CCN(CC)S(=O)(=O)c1ccc(N/N=C/c2cc(OC)ccc2O)nc1	3.85 µM
CCCc1cc(-c2nc(N)ncc2-c2ccc3c(c2)OCCCO3)c(O)cc1OC	4.18 µM
Oc1ccccc1C1=NN(c2ccccc2)C(c2ccccc2)C1 (stereo not drawn)	1.63 µM
CCC(=O)NC(=S)Nc1cccc(Cl)c1N1CCCCC1	9.96 µM
COc1cccc(-c2sc3ccccc3c2-c2ccc(OCCN3CCOCC3)cc2)c1	4.3 µM
O=C(CCCN1C(=O)/C(=C/c2ccccc2)SC1=S)NCCCn1ccnc1	> 19.5 µM (inactive)
COc1cc2c(cc1NC(=O)Nc1ccc(C)cc1)oc1ccccc12	11.3 µM
CC(C)CCNc1nc(-c2ccco2)c2c(c1C#N)CCCC2	11.3 µM
COc1cc(SC#N)ccc1N=Cc1c(C)[nH]n(-c2ccc(C)c(C)c2)c1=O	4.52 µM
Cc1ccc(-c2ccc([C@H]3[C@@H]4C=CCC[C@@]4(C)C(=O)N3Cc3ccccc3)c(F)c2)cc1	5.32 µM
CC(NCC(O)COCCC12CC3CC(CC(C3)C1)C2)c1ccccc1 (stereo not drawn)	3.32 µM
CC1(C)C=Cc2c(c3c(c4c(=O)c(-c5ccc(O)cc5)coc24)OC(C)(C)CC3)O1	7.5 µM
Cc1ccc(C)c(NC(=O)c2ccccc2NS(=O)(=O)c2cc([N+](=O)[O-])ccc2C)c1	4.27 µM
CC(=O)c1ccc(N2CCN(S(=O)(=O)c3cc(-c4cc(C)no4)ccc3C(C)C)CC2)cc1	0.205 µM
C=C(CC[C@@H](O)C(C)(C)O)[C@H]1CC[C@]2(C)[C@@H]1CCC1[C@@]3(C)CCC(=O)C(C)(C)C3CC[C@]12C (stereo partly drawn)	2.52 µM
CCOc1cc(NC(=O)c2ccccn2)c(OCC)cc1NC(=O)c1ccccc1	> 19.5 µM (inactive)
CC/C(=C\C1CCCCC1)C(NP(=O)(c1ccccc1)c1ccccc1)c1ccccc1 (stereo not drawn)	3.49 µM
c1ccc(CN2CCN(c3nc(NCc4ccco4)c4ccccc4n3)CC2)cc1	4.22 µM
COc1cc(-c2noc(C)c2C#Cc2ccccn2)cc(OC)c1OC	1.16 µM
O=C(CSc1nnc(-c2ccccc2O)n1Cc1ccccc1)NNC(=O)c1ccccc1O	3.22 µM
Cc1cc2ccccn2c1C(=O)c1ccc([N+](=O)[O-])o1	5.71 µM
Cc1cc(/C=N/n2c(COc3ccccc3)nc3ccccc3c2=O)c(O)c([N+](=O)[O-])c1	> 10 µM (inactive)
COc1cc2c(cc1NC(=O)CN(C)Cc1cccc(OC)c1OC)oc1ccccc12	3.56 µM
O=[N+]([O-])c1cc(C(F)(F)F)ccc1NCCc1c[nH]c2ccccc12	4.16 µM

SMILES	AC50
Cc1cccc(CN2CCN(C(c3ccccc3)c3ccc(Cl)cc3)CC2)c1 (stereo not drawn)	4.76 µM
Cc1cc(C)cc(NC(=O)Nc2ccc(NC(=O)c3ccccc3O)cc2)c1	> 19.5 µM (inactive)
CN1CCN(CCCNC(=O)c2ccc(/C=C3\Oc4ccccc4N(Cc4ccc(Cl)cc4)C3=O)cc2)CC1	3.31 µM
NS(=O)(=O)c1ccc(N=Cc2c(O)n(C3CCCCC3)c(=O)n(C3CCCCC3)c2=O)cc1	3.81 µM
NC(=O)CC(NC(=O)c1ccc(Br)cc1)c1ccc(N2CCCCCCC2)c([N+](=O)[O-])c1 (stereo not drawn)	7.85 µM
Cc1cccc(C)c1N=Nc1c(C)cc(O)cc1C	7.2 µM
Cc1ccc(Nc2cc(C)c3ccc(O)cc3n2)cc1C	9.16 µM
Cc1ccc(Cl)cc1NC(=S)N/N=C/c1cccc2ccccc12	0.298 µM
CCCCN=C(NNc1ccc(Br)cc1)C(=O)OCC	3.99 µM
CCn1c(=O)c(C(=O)NCc2ccccc2OC)c(O)c2ccccc21	17.4 µM
O=C(N/N=C/c1ccc(O)cc1O)/C(=C/c1ccccc1)CCO	7.22 µM
O=[N+]([O-])c1cccnc1N1CCC(c2cc(-c3ccc(Cl)cc3Cl)n[nH]2)CC1	4.6 µM
O=S(=O)(c1ccccc1)N(CC(O)Cn1c2ccccc2c2ccccc21)c1ccccc1 (stereo not drawn)	6.55 µM
COc1ccc(-c2cc([C@H]3[C@@H]4C=CCC[C@@]4(C)C(=O)N3Cc3ccccc3)ccc2F)cc1OC	5.67 µM
COc1cccc(NP(=O)(Oc2ccccc2)Oc2ccccc2)c1	15.1 µM
COc1ccc(O)c(/C=N/Nc2nc(Nc3ccccc3)nc(-n3nc(C)cc3C)n2)c1	3.52 µM
COc1cccc(-c2sc3ccccc3c2-c2ccc(OCCN(C)C)cc2)c1	3.34 µM
CCNc1nc(NCC)n2c(SC(C(=O)Nc3cc(Cl)cc(Cl)c3)c3ccccc3)nnc2n1 (stereo not drawn)	3.52 µM
S=C(Nc1cc(Cl)cc(Cl)c1)NC1CCN(Cc2ccccc2)CC1	4.23 µM
Cc1ccc(C(=O)N/N=C\c2ccc(-c3ccc(Cl)c(Cl)c3)o2)cn1	5.54 µM
COc1ccc([C@H]2Oc3cc(O)cc(O)c3C(=O)C2[C@@H]2C(=O)c3c(O)cc(O)cc3O[C@@H]2c2ccc(OC)cc2)cc1 (stereo partly drawn)	10.6 µM
O=C(/C(=C/c1cccc(Cl)c1)c1nc2ccccc2[nH]1)c1ccccc1	3.35 µM
CC1=NN(c2ccccc2)C(=O)/C1=C/C=C/c1ccccc1	3.57 µM
Cc1ccc(NS(=O)(=O)c2cc([N+](=O)[O-])ccc2NNC(=S)Nc2cc(C)ccc2C)c(C)c1	2.6 µM
CCOc1ccc(S(=O)(=O)N2CCN=C2c2ccccc2)cc1	3.1 µM
Fc1ccccc1COc1ccc(-c2nnn(Cc3ccccc3F)n2)cc1	4.81 µM

SMILES	AC50
O=C1c2ccccc2C2=Nc3ccccc3SC(c3ccc(Cl)cc3)C12 (stereo not drawn)	10.6 µM
OCCCCC#Cc1c(-c2ccsc2)sc2ccccc12	5.56 µM
Cc1ccc(C)c(NC(=O)c2cc(-c3ccccc3)nn2-c2ccccc2)c1	6.27 µM
O=C(Nc1cccc(-c2csc(Nc3cccc(C(F)(F)F)c3)n2)c1)c1ccccc1	3.42 µM
Cc1ccc(C(=O)Nc2nc(C)c(C(=O)Nc3ccc4c(c3)CCC4)s2)cc1	18.8 µM
O=[N+]([O-])c1cccnc1N1CCC(c2cc(-c3cccc(C(F)(F)F)c3)n[nH]2)CC1	3.56 µM
Cc1cc(C(=O)CN2C(=O)C(=O)N(Cc3ccccc3)C2=O)c(C)n1Cc1ccccc1	11.8 µM
C=C(C)[C@@H]1CC[C@]2(C(=O)O)CC[C@]3(C)C(CCC4[C@@]5(C)CC[C@H](O)C(C)(C)C5CC[C@]43C)C12 (stereo partly drawn)	5.71 µM
COc1ccc(-c2c(C#N)c(SCC(=O)c3cc4ccccc4oc3=O)nc(C)c2C(=O)Nc2ccccc2)cc1	1.5 µM
NC(=O)CC(NC(=O)Cc1ccc(Br)cc1)c1ccc(NC2CC3CCC2C3)c([N+](=O)[O-])c1 (stereo not drawn)	6.74 µM
CC1(C)C=Cc2c(ccc3c2OC[C@H](c2ccc(O)cc2O)C3)O1	4.43 µM
C/C(=N/Nc1ccc([N+](=O)[O-])cc1)c1ccc(C)cc1C	7.68 µM
CCOC(=O)c1c2ccc(OCC(=O)N/N=C/c3ccc(C)cc3)cc2n2ccccc12	11.8 µM
COc1ccc(C(C)(C)C)cc1NC(=O)Nc1ccc2c(c1)OCO2	8.21 µM
COc1ccc(C(=O)c2ccc(OC)cc2OC)cc1	5.49 µM
Cc1ccc(SC[C@H](C)CN2CC[C@H](C(C)(C)C)CCC2=O)cc1	6.63 µM
O=C(Nc1ccccc1)C1=C[C@@H](c2csc3ccccc23)C[C@@H](OCc2ccc(CO)cc2)O1	4.11 µM
Cc1cccc(NC(=S)NCC(C)CSc2ccc(Cl)cc2)c1 (stereo not drawn)	7.05 µM
COc1ccc(CNCCC(c2ccc(OC(C)C)cc2)c2ccccc2OC)cc1 (stereo not drawn)	4.71 µM
COc1ccccc1/C=C1\SC(=S)N(CCC(=O)NCCCn2ccnc2)C1=O	18.6 µM
CCN1CCN(Cc2ccc(NC(=O)c3cc(NC(=O)c4cnn(-c5ccccc5)c4N)cc(OC)c3)cc2C(F)(F)F)CC1	6.76 µM
Cc1ccc(-c2cc(C(=O)N/N=C/c3ccccc3O)n[nH]2)o1	10.2 µM
COc1ccc(-c2sc3ccccc3c2/C=C/c2ccncc2)cc1	6.68 µM
CCOC(=O)c1cccc(C2=CC(=O)C[C@H](c3ccc(Cl)cc3)C2)c1	2.82 µM
O=Nc1c(O)n(Cc2ccc(Cl)cc2Cl)c2ccccc12	7.05 µM
CCc1c(C2(O)CCCCC2)[nH]c2cc(C(F)(F)F)ccc12	3.15 µM

SMILES	AC50
Cc1c(C(=O)Nc2ccc(-c3nnc4n3CCCCC4)cc2)oc2c1ccc1ccccc12	5.66 µM
Clc1ccc2c(N/N=C/c3ccc(Br)cc3)ccnc2c1	7.56 µM
C[C@@H](CSc1ccc(Br)cc1)CN1CC[C@H](C(C)(C)C)CCC1=O	3.35 µM
FC(F)(F)c1ccc(C2[C@H]3CN(Cc4cccnc4)[C@H](c4ccccc4)C34CC2(c2cccnc2)C4)cc1 (stereo partly drawn)	3.67 µM
COC(=O)c1c(NC(=O)c2ccco2)sc2c1CCC2	> 19.5 µM (inactive)
Cc1cccc(OCCNC(=O)c2cccc(Oc3ccc(C(F)(F)F)cc3[N+](=O)[O-])c2)c1	6.38 µM
CNC(CC(=O)c1ccc([N+](=O)[O-])cc1)C(Cl)(Cl)Cl (stereo not drawn)	3.96 µM
COc1cc(-c2ccc3c(=O)c4ccccc4n(C)c3c2)cc(OC)c1OC	8.21 µM
Cc1cc(C)cc(N2C(=O)NC(=O)/C(=C/c3cccn3-c3ccc(Cl)cc3)C2=O)c1	2.84 µM
COc1cccc(/C=C/C(=O)c2ccc(NS(=O)(=O)c3ccc(C)cc3)cc2)c1	3.22 µM
CC(/C=N/NC(=O)c1cc(-c2ccc(C)s2)[nH]n1)=C\c1ccccc1	4.35 µM
CC(=O)NC1=C(C#N)C(c2ccccc2)c2c(ccc3ccccc23)O1 (stereo not drawn)	3.44 µM
COc1ccc(OC)c(-c2nnc3n2N=C(c2ccc(OC(F)F)c(OCC4CC4)c2)CS3)c1	4.26 µM
Cc1cc(C)cc(NC(=O)CSc2ccc(-c3ccccn3)nn2)c1	3.61 µM
CN(C)c1ccc(-n2cccc2/C=C/[N+](=O)[O-])cc1	3.63 µM
O=C(N/N=C/c1ccc[nH]1)c1sc2ccccc2c1Cl	13.4 µM
CCc1c(C2(O)CCCCC2)[nH]c2c(C(=O)OC)cc(Cl)cc12	2.69 µM
c1ccc(-c2sc3ccccc3c2-c2ccc(OCCN3CCCC3)cc2)cc1	2.37 µM
Cc1ccc(S(=O)(=O)Nc2ccccc2-c2ccccc2NS(=O)(=O)c2ccc(C)cc2)cc1	6.98 µM
CCc1ccc(NC(=O)c2cc3c(C)nc4ccccc4c3o2)cc1	11.9 µM
COC(=O)c1ccc(/C=C/c2c(-c3ccsc3)sc3ccccc23)cc1	7.46 µM
Cc1ccc(C2(c3noc(CN4CCC(c5ccncc5)CC4)n3)CCCC2)cc1	2.32 µM
CCN1CCN(CCNC(=O)c2ccc3c(c2)N(Cc2ccc(F)cc2)C(=O)/C(=C/c2ccccc2)S3)CC1	3.71 µM
Cc1nn(Cc2ccc(Cl)c(Cl)c2)c(C)c1NC(=O)c1cc(-c2ccc3c(c2)OCO3)on1	1.56 µM
Cc1cc2nc(NCCCO)n(CC(=O)c3cc(C(C)(C)C)c(O)c(C(C)(C)C)c3)c2cc1C	3.56 µM
